According to ChEMBL document CHEMBL6127071, “Albusamides A-G: Hydroxylated Fatty Amine Derivatives from the Deep-Sea-Derived Actinomycete Streptomyces albus 228DD-066 and Their Cytotoxic Activity” (2024):
Where a name gives a salt, the structure may show the parent alone.

What was measured:
Type in all cases: functional
[1] = system: ACHN; assay: Growth inhibition of human ACHN cells assessed as reduction in cell viability measured after 48 hrs by SRB method
[2] = system: U-266; assay: Growth inhibition of human U-266 cells assessed as reduction in cell viability measured after 48 hrs by SRB method
[3] = system: WSUDLCL2; assay: Growth inhibition of human WSUDLCL2 cells assessed as reduction in cell viability measured after 48 hrs by SRB method
[4] = system: PC-3; assay: Growth inhibition of human PC-3 cells assessed as reduction in cell viability measured after 48 hrs by SRB method
[5] = system: K562; assay: Growth inhibition of human K562 cells assessed as reduction in cell viability measured after 48 hrs by SRB method
[6] = system: RPMI 8402; assay: Growth inhibition of human RPMI 8402 cells assessed as reduction in cell viability measured after 48 hrs by SRB method
[7] = Growth inhibition of human MRC9 cells assessed as reduction in cell viability measured after 48 hrs by SRB method
[8] = system: NUGC-3; assay: Growth inhibition of human NUGC-3 cells assessed as reduction in cell viability measured after 48 hrs by SRB method
[9] = system: MDA-MB-231; assay: Growth inhibition of human MDA-MB-231 cells assessed as reduction in cell viability measured after 48 hrs by SRB method
[10] = Growth inhibition of human RPMI-1788 cells assessed as reduction in cell viability measured after 48 hrs by SRB method
[11] = system: NCI-H23; assay: Growth inhibition of human NCI-H23 cells assessed as reduction in cell viability measured after 48 hrs by SRB method
[12] = system: HL-60; assay: Growth inhibition of human HL-60 cells assessed as reduction in cell viability measured after 48 hrs by SRB method
[13] = system: Raji; assay: Growth inhibition of human Raji cells assessed as reduction in cell viability measured after 48 hrs by SRB method
[14] = system: NALM-6; assay: Growth inhibition of human NALM-6 cells assessed as reduction in cell viability measured after 48 hrs by SRB method
[15] = system: HCT-15; assay: Growth inhibition of human HCT-15 cells assessed as reduction in cell viability measured after 48 hrs by SRB method

SMILES | GI50 [1] | GI50 [2] | GI50 [3] | GI50 [4] | GI50 [5] | GI50 [6] | GI50 [7] | GI50 [8] | GI50 [9] | GI50 [10] | GI50 [11] | GI50 [12] | GI50 [13] | GI50 [14] | GI50 [15]
CC[C@@H](O)CCCCCCCCCNC(C)=O | 5.7 µM | > 30 µM | 14 µM | 5.1 µM | > 30 µM | > 30 µM | 5.3 µM | 3900 nM | 4.7 µM | 4.7 µM | 5.3 µM | > 30 µM | > 30 µM | > 30 µM | 4.6 µM
CC(=O)NCCCCCCCCC[C@@H](O)[C@H](C)O | 6.4 µM | > 30 µM | > 30 µM | 7.3 µM | > 30 µM | > 30 µM | 6.7 µM | 6600 nM | 7.5 µM | 17 µM | 7.2 µM | > 30 µM | > 30 µM | > 30 µM | 5.8 µM
CC(=O)NCCCCCCCCC[C@@H](O)[C@@H](C)O | 1.6 µM | > 30 µM | 8.3 µM | 1.7 µM | > 30 µM | > 30 µM | 2 µM | 1400 nM | 2 µM | 3.1 µM | 1.9 µM | > 30 µM | > 30 µM | > 30 µM | 2.1 µM
CC(=O)NCCCCCCCCCO | 2.3 µM | > 30 µM | 1.3 µM | 2 µM | 19 µM | 4.4 µM | 2.8 µM | 1500 nM | 2.6 µM | 0.5 µM | 2.1 µM | 15 µM | > 30 µM | 18 µM | 2.6 µM
CC(=O)NCCCCCCCCCC(=O)CCO | 16 µM | > 30 µM | > 30 µM | 19 µM | > 30 µM | > 30 µM | 20 µM | 17000 nM | 18 µM | 28 µM | 18 µM | > 30 µM | > 30 µM | > 30 µM | 15 µM
CC(=O)CCCCCCCCCCNC(C)=O | > 30 µM | > 30 µM | > 30 µM | > 30 µM | > 30 µM | > 30 µM | > 30 µM | > 30000 nM | > 30 µM | > 30 µM | > 30 µM | > 30 µM | > 30 µM | > 30 µM | > 30 µM
CC(=O)NCCCCCCCCC[C@@H](O)CCO | 5.8 µM | > 30 µM | 5.6 µM | 5.5 µM | 28 µM | 25 µM | 4 µM | 3000 nM | 4.6 µM | 2.9 µM | 4.6 µM | > 30 µM | > 30 µM | > 30 µM | 5.4 µM
CC(=O)NCCCCCCCCCC[C@H](O)CO | 0.5 µM | > 30 µM | 0.2 µM | 0.5 µM | 1.5 µM | 0.6 µM | 0.6 µM | 400 nM | 0.5 µM | 0.1 µM | 0.5 µM | 1.3 µM | 26 µM | 1.5 µM | 0.5 µM
CC(=O)NCCCCCCCCCC[C@@H](C)O | 23 µM | > 30 µM | > 30 µM | 19 µM | > 30 µM | > 30 µM | 19 µM | 19000 nM | 20 µM | > 30 µM | 22 µM | > 30 µM | > 30 µM | > 30 µM | 16 µM
CCC(=O)CCCCCCCCCNC(C)=O | > 30 µM | > 30 µM | > 30 µM | > 30 µM | > 30 µM | > 30 µM | > 30 µM | > 30000 nM | > 30 µM | > 30 µM | > 30 µM | > 30 µM | 19 µM | > 30 µM | > 30 µM
CC(=O)CCCCCCCCNC(C)=O | 1.1 µM | > 30 µM | 0.8 µM | 0.8 µM | 11 µM | 2.5 µM | 1.1 µM | 700 nM | 1.1 µM | 0.4 µM | 1 µM | 7.9 µM | 0.4 µM | 9.2 µM | 1.1 µM
COc1cccc2c1C(=O)c1c(O)c3c(c(O)c1C2=O)C[C@@](O)(C(=O)CO)C[C@@H]3O[C@H]1C[C@H](N)[C@H](O)[C@H](C)O1 [DOXORUBICIN HYDROCHLORIDE] | 0.081 µM | 0.004 µM | 0.004 µM | 0.085 µM | 0.007 µM | 0.01 µM | 0.08 µM | 93 nM | 0.077 µM | 0.007 µM | 0.072 µM | 0.002 µM | 0.008 µM | 0.003 µM | 0.087 µM
